Reference: ChEMBL document CHEMBL4800727 (2021)

Tests used:
Conditions in all cases: Compound concentration 10.0 uM
[1] = target: GABA-A receptor; anion channel (Rattus norvegicus) (UniProt O09028+P15431+P18506+P18508+P19969+P20236+P23574+P23576+P28471+P28473+P30191+P62813+P63079+P63138+Q91ZM7+Q9ES14)
[2] = target: T1, Alpha-1B adrenergic receptor (Homo sapiens) (UniProt P35368)
T1 sequence (whole entry): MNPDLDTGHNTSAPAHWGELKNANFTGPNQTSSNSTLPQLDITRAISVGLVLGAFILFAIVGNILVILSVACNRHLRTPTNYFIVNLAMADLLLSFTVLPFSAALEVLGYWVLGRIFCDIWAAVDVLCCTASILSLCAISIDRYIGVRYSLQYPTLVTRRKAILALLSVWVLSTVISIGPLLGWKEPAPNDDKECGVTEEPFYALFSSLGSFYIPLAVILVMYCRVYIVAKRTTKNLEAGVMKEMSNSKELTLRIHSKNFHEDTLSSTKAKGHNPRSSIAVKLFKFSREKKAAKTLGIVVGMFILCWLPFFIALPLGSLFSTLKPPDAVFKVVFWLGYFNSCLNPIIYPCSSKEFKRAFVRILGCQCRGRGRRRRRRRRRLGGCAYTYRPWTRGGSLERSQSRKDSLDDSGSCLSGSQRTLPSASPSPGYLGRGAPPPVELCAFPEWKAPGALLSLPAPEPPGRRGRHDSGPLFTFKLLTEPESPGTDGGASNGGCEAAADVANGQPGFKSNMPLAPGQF

[3] = target: 5-hydroxytryptamine receptor 6 (Homo sapiens) (UniProt P50406)
[4] = target: D(1A) dopamine receptor (Homo sapiens) (UniProt P21728)
[5] = target: Beta-2 adrenergic receptor (Homo sapiens) (UniProt P07550)
[6] = target: T2, 5-hydroxytryptamine receptor 2C (Homo sapiens) (UniProt P28335)
T2 sequence (whole entry): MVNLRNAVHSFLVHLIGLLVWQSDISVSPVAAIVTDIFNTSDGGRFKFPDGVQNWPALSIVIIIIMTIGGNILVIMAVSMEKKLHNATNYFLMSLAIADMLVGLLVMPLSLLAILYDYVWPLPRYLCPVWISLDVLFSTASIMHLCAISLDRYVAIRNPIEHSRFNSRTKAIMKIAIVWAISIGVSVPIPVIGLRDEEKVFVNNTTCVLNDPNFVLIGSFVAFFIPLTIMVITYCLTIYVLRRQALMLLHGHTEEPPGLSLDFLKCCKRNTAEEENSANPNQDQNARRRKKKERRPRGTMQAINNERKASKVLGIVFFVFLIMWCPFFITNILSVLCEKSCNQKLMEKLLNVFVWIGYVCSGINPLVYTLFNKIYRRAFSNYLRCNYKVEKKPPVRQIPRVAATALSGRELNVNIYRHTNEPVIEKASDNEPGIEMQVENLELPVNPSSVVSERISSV

[7] = target: Sigma non-opioid intracellular receptor 1 (Homo sapiens) (UniProt Q99720)
[8] = target: T3, Muscarinic acetylcholine receptor M1 (Homo sapiens) (UniProt P11229)
T3 sequence (whole entry): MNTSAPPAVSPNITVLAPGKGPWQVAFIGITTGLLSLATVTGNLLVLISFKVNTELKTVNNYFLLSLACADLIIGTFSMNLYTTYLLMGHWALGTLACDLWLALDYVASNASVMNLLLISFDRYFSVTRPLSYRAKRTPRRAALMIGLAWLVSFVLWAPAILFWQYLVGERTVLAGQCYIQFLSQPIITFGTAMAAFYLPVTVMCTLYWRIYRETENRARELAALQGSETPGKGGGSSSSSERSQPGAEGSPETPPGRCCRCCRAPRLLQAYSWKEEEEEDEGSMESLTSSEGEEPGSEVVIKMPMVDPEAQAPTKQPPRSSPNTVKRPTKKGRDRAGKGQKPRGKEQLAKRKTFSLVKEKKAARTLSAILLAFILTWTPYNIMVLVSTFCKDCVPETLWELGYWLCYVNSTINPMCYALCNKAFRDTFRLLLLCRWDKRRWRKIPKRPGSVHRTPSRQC

[9] = target: Alpha-1A adrenergic receptor (Homo sapiens) (UniProt P35348)
[10] = target: 5-hydroxytryptamine receptor 2B (Homo sapiens, UniProt P41595)
[11] = target: Alpha-2C adrenergic receptor (Homo sapiens) (UniProt P18825)
[12] = target: T4, 5-hydroxytryptamine receptor 3A (Homo sapiens) (UniProt P46098)
T4 sequence (whole entry): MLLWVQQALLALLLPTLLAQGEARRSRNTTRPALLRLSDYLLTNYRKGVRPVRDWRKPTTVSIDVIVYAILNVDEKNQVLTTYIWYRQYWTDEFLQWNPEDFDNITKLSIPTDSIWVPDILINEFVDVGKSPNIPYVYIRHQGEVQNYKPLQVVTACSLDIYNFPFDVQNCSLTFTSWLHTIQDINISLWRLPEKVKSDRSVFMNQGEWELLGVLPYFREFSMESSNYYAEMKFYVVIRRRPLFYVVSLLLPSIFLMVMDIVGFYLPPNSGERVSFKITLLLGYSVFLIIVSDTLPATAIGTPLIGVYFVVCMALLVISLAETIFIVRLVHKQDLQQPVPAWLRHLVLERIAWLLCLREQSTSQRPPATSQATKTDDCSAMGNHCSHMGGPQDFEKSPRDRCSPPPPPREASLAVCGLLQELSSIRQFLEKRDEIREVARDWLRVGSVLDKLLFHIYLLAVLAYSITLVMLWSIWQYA

[13] = target: Histamine H3 receptor (Homo sapiens) (UniProt Q9Y5N1)
Sequence of Histamine H3 receptor (Homo sapiens) (Q9Y5N1 whole entry): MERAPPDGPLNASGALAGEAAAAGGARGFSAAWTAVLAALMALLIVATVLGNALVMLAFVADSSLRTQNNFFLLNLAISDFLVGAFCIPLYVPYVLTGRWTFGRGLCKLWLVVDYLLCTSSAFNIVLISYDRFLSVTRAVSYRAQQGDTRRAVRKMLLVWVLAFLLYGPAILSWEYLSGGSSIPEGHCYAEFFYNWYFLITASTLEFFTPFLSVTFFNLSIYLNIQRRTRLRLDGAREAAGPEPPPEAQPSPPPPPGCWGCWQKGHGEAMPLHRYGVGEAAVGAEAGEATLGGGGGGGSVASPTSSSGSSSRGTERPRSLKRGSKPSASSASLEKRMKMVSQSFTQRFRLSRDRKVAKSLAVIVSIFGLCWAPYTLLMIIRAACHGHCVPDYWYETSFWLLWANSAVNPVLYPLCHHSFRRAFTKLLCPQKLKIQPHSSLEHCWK

Sequence of Beta-2 adrenergic receptor (Homo sapiens) (P07550 whole entry, looked up): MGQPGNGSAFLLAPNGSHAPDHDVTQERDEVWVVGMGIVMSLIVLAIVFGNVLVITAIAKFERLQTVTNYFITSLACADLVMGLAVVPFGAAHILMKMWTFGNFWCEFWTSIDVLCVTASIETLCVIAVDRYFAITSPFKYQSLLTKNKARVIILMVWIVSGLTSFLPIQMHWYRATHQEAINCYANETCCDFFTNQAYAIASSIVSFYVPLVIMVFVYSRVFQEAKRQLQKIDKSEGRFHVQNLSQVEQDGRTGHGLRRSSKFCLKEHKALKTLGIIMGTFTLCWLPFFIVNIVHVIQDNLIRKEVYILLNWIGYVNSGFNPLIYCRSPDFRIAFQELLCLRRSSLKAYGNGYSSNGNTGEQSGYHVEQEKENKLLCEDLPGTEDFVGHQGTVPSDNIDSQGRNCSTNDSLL
Sequence of Sigma non-opioid intracellular receptor 1 (Homo sapiens) (Q99720 whole entry): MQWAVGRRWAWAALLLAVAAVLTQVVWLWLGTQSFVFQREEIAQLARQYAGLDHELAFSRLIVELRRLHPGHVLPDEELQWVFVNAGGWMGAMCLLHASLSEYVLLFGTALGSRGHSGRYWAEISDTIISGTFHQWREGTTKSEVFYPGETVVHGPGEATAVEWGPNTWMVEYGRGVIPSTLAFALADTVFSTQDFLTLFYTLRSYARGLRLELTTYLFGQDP
Sequence of Alpha-2C adrenergic receptor (Homo sapiens) (P18825 whole entry): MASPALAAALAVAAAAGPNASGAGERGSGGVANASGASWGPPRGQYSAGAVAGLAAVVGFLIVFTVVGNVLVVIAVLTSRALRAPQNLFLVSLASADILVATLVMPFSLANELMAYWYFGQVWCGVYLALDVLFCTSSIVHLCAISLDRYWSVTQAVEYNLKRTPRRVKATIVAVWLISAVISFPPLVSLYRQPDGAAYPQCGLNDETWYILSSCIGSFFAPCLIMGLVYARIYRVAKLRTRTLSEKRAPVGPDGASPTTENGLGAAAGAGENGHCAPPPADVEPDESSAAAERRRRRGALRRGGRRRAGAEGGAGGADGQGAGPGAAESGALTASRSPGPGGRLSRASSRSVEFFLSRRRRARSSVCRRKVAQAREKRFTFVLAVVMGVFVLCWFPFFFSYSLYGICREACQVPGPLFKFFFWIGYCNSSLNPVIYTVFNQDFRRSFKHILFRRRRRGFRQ
Sequence of 5-hydroxytryptamine receptor 2B (P41595 whole entry): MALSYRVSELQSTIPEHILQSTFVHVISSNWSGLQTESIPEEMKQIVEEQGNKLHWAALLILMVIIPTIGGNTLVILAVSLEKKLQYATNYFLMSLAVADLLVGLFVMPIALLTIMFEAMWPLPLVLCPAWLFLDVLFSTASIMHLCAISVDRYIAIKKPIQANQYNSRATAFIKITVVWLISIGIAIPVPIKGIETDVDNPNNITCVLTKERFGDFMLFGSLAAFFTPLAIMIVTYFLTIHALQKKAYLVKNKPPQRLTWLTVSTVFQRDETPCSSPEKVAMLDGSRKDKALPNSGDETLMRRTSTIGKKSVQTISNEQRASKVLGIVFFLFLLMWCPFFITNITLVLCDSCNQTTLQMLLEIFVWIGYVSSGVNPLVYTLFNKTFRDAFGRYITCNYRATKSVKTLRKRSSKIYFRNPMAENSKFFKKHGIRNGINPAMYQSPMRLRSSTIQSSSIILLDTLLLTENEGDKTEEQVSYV
Sequence of D(1A) dopamine receptor (Homo sapiens) (P21728 whole entry): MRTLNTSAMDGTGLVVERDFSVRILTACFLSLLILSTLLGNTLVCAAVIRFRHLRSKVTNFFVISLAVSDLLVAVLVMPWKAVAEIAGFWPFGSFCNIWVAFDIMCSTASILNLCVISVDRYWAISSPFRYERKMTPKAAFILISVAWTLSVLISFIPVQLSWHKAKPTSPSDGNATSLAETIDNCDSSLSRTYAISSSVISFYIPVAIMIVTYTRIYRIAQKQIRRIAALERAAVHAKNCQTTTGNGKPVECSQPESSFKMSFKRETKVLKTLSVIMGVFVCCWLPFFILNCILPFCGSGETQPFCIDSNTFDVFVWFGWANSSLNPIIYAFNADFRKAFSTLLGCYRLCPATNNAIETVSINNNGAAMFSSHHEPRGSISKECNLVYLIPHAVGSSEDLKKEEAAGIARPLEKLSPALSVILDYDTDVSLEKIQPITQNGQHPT
Sequence of Alpha-1A adrenergic receptor (Homo sapiens) (P35348 whole entry): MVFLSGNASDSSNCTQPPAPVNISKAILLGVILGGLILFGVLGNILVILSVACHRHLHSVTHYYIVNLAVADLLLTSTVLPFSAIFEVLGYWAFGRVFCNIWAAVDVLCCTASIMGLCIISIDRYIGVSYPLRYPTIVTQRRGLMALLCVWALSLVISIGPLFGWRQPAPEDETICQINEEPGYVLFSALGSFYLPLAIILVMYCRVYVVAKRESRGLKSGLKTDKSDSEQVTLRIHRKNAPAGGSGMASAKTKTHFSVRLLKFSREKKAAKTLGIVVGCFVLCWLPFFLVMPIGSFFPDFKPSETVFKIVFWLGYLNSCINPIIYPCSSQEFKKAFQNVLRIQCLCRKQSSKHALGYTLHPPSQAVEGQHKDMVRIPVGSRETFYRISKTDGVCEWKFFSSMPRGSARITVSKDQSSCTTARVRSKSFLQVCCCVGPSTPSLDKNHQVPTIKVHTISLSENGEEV
Sequence of 5-hydroxytryptamine receptor 6 (Homo sapiens) (P50406 whole entry): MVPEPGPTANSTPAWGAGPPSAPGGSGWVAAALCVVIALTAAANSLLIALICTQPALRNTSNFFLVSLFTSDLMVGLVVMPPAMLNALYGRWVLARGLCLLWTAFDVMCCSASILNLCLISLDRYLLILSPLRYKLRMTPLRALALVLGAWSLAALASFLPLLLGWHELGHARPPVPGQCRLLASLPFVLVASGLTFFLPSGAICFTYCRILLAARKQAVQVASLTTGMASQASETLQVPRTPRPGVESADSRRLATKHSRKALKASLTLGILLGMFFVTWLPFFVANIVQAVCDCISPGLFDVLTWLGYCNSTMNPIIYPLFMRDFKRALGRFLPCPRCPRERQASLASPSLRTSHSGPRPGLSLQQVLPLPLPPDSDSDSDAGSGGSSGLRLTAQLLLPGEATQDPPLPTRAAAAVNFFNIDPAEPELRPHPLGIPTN

| SMILES | inhibition [1] [%] | inhibition [2] [%] | inhibition [3] [%] | inhibition [4] [%] | inhibition [5] [%] | inhibition [6] [%] | inhibition [7] [%] | inhibition [8] [%] | inhibition [9] [%] | inhibition [10] [%] | inhibition [11] [%] | inhibition [12] [%] | inhibition [13] [%] |
| --- | --- | --- | --- | --- | --- | --- | --- | --- | --- | --- | --- | --- | --- |
| c1ccc(C2CCN(c3cnc4c(N5CCOCC5)nccn34)CC2)cc1 | 22.2 | 0.45 | -7.87 | 10.6 | 8.86 | 5.92 | 44 | 23.7 | 22.5 | 17.7 | 16.5 | 9.38 | 7.29 |
| COCCc1ccc(-c2c(C)nc3c(N4CCOCC4)ccnn23)cn1 [JNJ-42396302] | 34 | -8.94 | 18.5 | 2.41 | -1.12 | 68.2 | -2.53 | 2.83 | 23 | 52.2 | 41.3 | 4.69 | 3.7 |
